{"source": "the supplement of paper PMC11208160", "data": [{"test": "recombinant UMI read abundance after kanamycin selection (control-corrected) (log10(CPM+1)); higher = more efficient recombination; extreme values may be limits of the assay; sequences stand for … in AGTGCAGAGAAAATCGGCCAGTTTTCTCTGCCTGCAGTCCGCATGCCGTGGGACCCCTTGGGTTCTAACCTGTTGCCTAGATTTATGCAGCGGACTGCCTTTCTCCCAAAGTGATAAACCGG…AGGTTGGTTTCACT; site = the 11-nt donor", "outline": "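Pooled Escherichia coli screen of donor and donor-binding-loop pairs for the IS621 bridge recombinase. Each pair sits with a 12-nt UMI on a plasmid carrying a promoterless kanamycin gene. The library was co-electroporated with a target plasmid encoding a fixed target and T7-inducible recombinase, then plated with IPTG (0.07 mM) plus kanamycin, or unselected, each in two replicates. Recombinant UMIs were PCR-amplified across the donor–target junction and sequenced. Counts became CPM, averaged over replicates, scaled by control-derived factors and reported as log10(CPM+1).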", "values": [{"sequence": "TCAATGACATGGACCGGTTTTCCCGGTAATCCGTATTTGGT (site TCAATGACTAC)", "recombinant UMI read abundance (log10)": 0.953}, {"sequence": "CCTAACGCATGGACCGGTTTTCCCGGTAATCCGTATTTGAT (site CCTAACGCTAT)", "recombinant UMI read abundance (log10)": 0}, {"sequence": "TCCCGCCCATGGACCGGTTTTCCCGGTAATCCGTATTTGGC (site TCCCGCCCTGC)", "recombinant UMI read abundance (log10)": 0}, {"sequence": "GGACTGGCATGGACCGGTTTTCCCGGTAATCCGTATTTGGT (site GGATTGGCTAC)", "recombinant UMI read abundance (log10)": 0.0234}, {"sequence": "TCGGAGACATGGACCGGTTTTCCCGGTAATCCGTATTTGCG (site TCCGAGACTCG)", "recombinant UMI read abundance (log10)": 0.44}, {"sequence": "ACTAGAACATGGACCGGTTTTCCCGGTAATCCGTATTTGAG (site ACTAGGACTCT)", "recombinant UMI read abundance (log10)": 0.407}, {"sequence": "TCATACTCATGGACCGGTTTTCCCGGTAATCCGTATTTGCA (site TCATACTCTCG)", "recombinant UMI read abundance (log10)": 0.514}, {"sequence": "TCAGAGACATGGACCGGTTTTCCCGGTAATCCGTATTTGCT (site TCAGAGACTTG)", "recombinant UMI read abundance (log10)": 0.868}, {"sequence": "GATTGGTCATGGACCGGTTTTCCCGGTAATCCGTATTTGAC (site GATTGGCCTGT)", "recombinant UMI read abundance (log10)": 0}, {"sequence": "AGGAATACATGGACCGGTTTTCCCGGTAATCCGTATTTGCA (site AGGAAGACTTG)", "recombinant UMI read abundance (log10)": 0.151}, {"sequence": "GAGCAATCATGGACCGGTTTTCCCGGTAATCCGTATTTGTT (site GAGCAATCTAA)", "recombinant UMI read abundance (log10)": 2.77}, {"sequence": "CCCTAGACATGGACCGGTTTTCCCGGTAATCCGTATTTGCC (site CCCTAGTCTGG)", "recombinant UMI read abundance (log10)": 0}, {"sequence": "AATTTGGCATGGACCGGTTTTCCCGGTAATCCGTATTTGTG (site TATTTGGCTCA)", "recombinant UMI read abundance (log10)": 0.187}, {"sequence": "CCCTCCTCATGGACCGGTTTTCCCGGTAATCCGTATTTGGG (site CCCTCCTCTCC)", "recombinant UMI read abundance (log10)": 0.487}, {"sequence": "AATTGGGCATGGACCGGTTTTCCCGGTAATCCGTATTTGAT (site AATTGGGCTAT)", "recombinant UMI read abundance (log10)": 0.68}, {"sequence": "TATTTGGCATGGACCGGTTTTCCCGGTAATCCGTATTTGTG (site GATTTGGCTCA)", "recombinant UMI read abundance (log10)": 0.026}, {"sequence": "CCTCTAGCATGGACCGGTTTTCCCGGTAATCCGTATTTGTA (site CCTCTAGCTTA)", "recombinant UMI read abundance (log10)": 0.352}, {"sequence": "TAACGAACATGGACCGGTTTTCCCGGTAATCCGTATTTGAC (site TAACGAACTGT)", "recombinant UMI read abundance (log10)": 2.86}, {"sequence": "CCCGGCCCATGGACCGGTTTTCCCGGTAATCCGTATTTGTT (site CACGGCCCTAA)", "recombinant UMI read abundance (log10)": 0.00644}, {"sequence": "AGCAGTACATGGACCGGTTTTCCCGGTAATCCGTATTTGCG (site AGCAGTACTCG)", "recombinant UMI read abundance (log10)": 1.25}, {"sequence": "ACTAGTTCATGGACCGGTTTTCCCGGTAATCCGTATTTGAA (site ACTAGTTCTTT)", "recombinant UMI read abundance (log10)": 1.03}, {"sequence": "CCCTAGCCATGGACCGGTTTTCCCGGTAATCCGTATTTGAC (site CCCTAGCCTGT)", "recombinant UMI read abundance (log10)": 0}, {"sequence": "CCAAATACATGGACCGGTTTTCCCGGTAATCCGTATTTGGC (site CCGAATACTGC)", "recombinant UMI read abundance (log10)": 0}, {"sequence": "CGTTGTTCATGGACCGGTTTTCCCGGTAATCCGTATTTGTA (site CGTTGTTCTTA)", "recombinant UMI read abundance (log10)": 2.19}, {"sequence": "CACCGATCATGGACCGGTTTTCCCGGTAATCCGTATTTGGC (site CACCGATCTGC)", "recombinant UMI read abundance (log10)": 3.71}, {"sequence": "GAGAACCCATGGACCGGTTTTCCCGGTAATCCGTATTTGTC (site GAGAACCCTGA)", "recombinant UMI read abundance (log10)": 0}, {"sequence": "TGGCCGGCATGGACCGGTTTTCCCGGTAATCCGTATTTGGC (site TGGCGGGCTGC)", "recombinant UMI read abundance (log10)": 0}, {"sequence": "TACGTGACATGGACCGGTTTTCCCGGTAATCCGTATTTGCT (site TACATGACTAG)", "recombinant UMI read abundance (log10)": 1.65}, {"sequence": "CATTTCCCATGGACCGGTTTTCCCGGTAATCCGTATTTGCT (site CATTTCCCTAG)", "recombinant UMI read abundance (log10)": 0.788}, {"sequence": "GTGGGTACATGGACCGGTTTTCCCGGTAATCCGTATTTGAC (site GTTGGTACTGT)", "recombinant UMI read abundance (log10)": 2.72}, {"sequence": "TAGCTCTCATGGACCGGTTTTCCCGGTAATCCGTATTTGGG (site TAGCTCTCTCC)", "recombinant UMI read abundance (log10)": 0.00931}, {"sequence": "GAAGACTCATGGACCGGTTTTCCCGGTAATCCGTATTTGTT (site GAAGACTCTAA)", "recombinant UMI read abundance (log10)": 2.84}, {"sequence": "CCGATTACATGGACCGGTTTTCCCGGTAATCCGTATTTGCT (site CCGCTTACTAG)", "recombinant UMI read abundance (log10)": 0}, {"sequence": "ACACGAACATGGACCGGTTTTCCCGGTAATCCGTATTTGTA (site ACACGAACTTA)", "recombinant UMI read abundance (log10)": 2.52}, {"sequence": "TGAGTGGCATGGACCGGTTTTCCCGGTAATCCGTATTTGGT (site TGAGTGGCTAC)", "recombinant UMI read abundance (log10)": 0.902}, {"sequence": "AAGAACCCATGGACCGGTTTTCCCGGTAATCCGTATTTGAA (site AAGAACCCTTT)", "recombinant UMI read abundance (log10)": 1.5}, {"sequence": "TCGCCGGCATGGACCGGTTTTCCCGGTAATCCGTATTTGGC (site TCGCCGGCTGC)", "recombinant UMI read abundance (log10)": 0}, {"sequence": "TGTAGTGCATGGACCGGTTTTCCCGGTAATCCGTATTTGCC (site TGTAGTGCTGG)", "recombinant UMI read abundance (log10)": 1.56}, {"sequence": "TATGAGCCATGGACCGGTTTTCCCGGTAATCCGTATTTGGA (site TATGAGCCTTC)", "recombinant UMI read abundance (log10)": 0.00722}, {"sequence": "GCCACAGCATGGACCGGTTTTCCCGGTAATCCGTATTTGCT (site GCCACAGCTAG)", "recombinant UMI read abundance (log10)": 1.2}, {"sequence": "GTCCGAGCATGGACCGGTTTTCCCGGTAATCCGTATTTGCA (site GTGCGAGCTTG)", "recombinant UMI read abundance (log10)": 0.297}, {"sequence": "AGGTTCACATGGACCGGTTTTCCCGGTAATCCGTATTTGCC (site AGGTTCACTGG)", "recombinant UMI read abundance (log10)": 2.11}, {"sequence": "GGAGTGTCATGGACCGGTTTTCCCGGTAATCCGTATTTGGT (site GGAGTGGCTAC)", "recombinant UMI read abundance (log10)": 0.0122}, {"sequence": "GTAGGTTCATGGACCGGTTTTCCCGGTAATCCGTATTTGAC (site GTAGGTTCTGT)", "recombinant UMI read abundance (log10)": 2.46}, {"sequence": "CAACATACATGGACCGGTTTTCCCGGTAATCCGTATTTGGG (site CAACATACTCC)", "recombinant UMI read abundance (log10)": 0.887}, {"sequence": "CTGCTACCATGGACCGGTTTTCCCGGTAATCCGTATTTGCT (site CTGCCACCTAG)", "recombinant UMI read abundance (log10)": 0.00361}, {"sequence": "TGCCGGCCATGGACCGGTTTTCCCGGTAATCCGTATTTGGA (site TGCCGGCCTTC)", "recombinant UMI read abundance (log10)": 0.0137}, {"sequence": "GTAGTGGCATGGACCGGTTTTCCCGGTAATCCGTATTTGGT (site GCAGTGGCTAC)", "recombinant UMI read abundance (log10)": 0.771}, {"sequence": "CGAAATCCATGGACCGGTTTTCCCGGTAATCCGTATTTGTT (site CGCAATCCTAA)", "recombinant UMI read abundance (log10)": 0}, {"sequence": "GTTACACCATGGACCGGTTTTCCCGGTAATCCGTATTTGGC (site GTTACACCTGC)", "recombinant UMI read abundance (log10)": 0}, {"sequence": "AATGTTTCATGGACCGGTTTTCCCGGTAATCCGTATTTGAC (site AATGTTTCTGT)", "recombinant UMI read abundance (log10)": 0}, {"sequence": "TCAGAGACATGGACCGGTTTTCCCGGTAATCCGTATTTGCT (site TCAGAGACTCG)", "recombinant UMI read abundance (log10)": 0.601}, {"sequence": "ATCTGATCATGGACCGGTTTTCCCGGTAATCCGTATTTGCT (site ATCTGATCTAG)", "recombinant UMI read abundance (log10)": 2.71}, {"sequence": "CCCGAGACATGGACCGGTTTTCCCGGTAATCCGTATTTGTT (site CCCGAGACTAA)", "recombinant UMI read abundance (log10)": 0.475}, {"sequence": "CATGACTCATGGACCGGTTTTCCCGGTAATCCGTATTTGTT (site CATGACTCTAA)", "recombinant UMI read abundance (log10)": 2.08}, {"sequence": "GTTGATCCATGGACCGGTTTTCCCGGTAATCCGTATTTGGT (site GTTGATCCTAC)", "recombinant UMI read abundance (log10)": 0.00442}, {"sequence": "TGATAGGCATGGACCGGTTTTCCCGGTAATCCGTATTTGGT (site TGCTAGGCTAC)", "recombinant UMI read abundance (log10)": 0.0143}, {"sequence": "GAAGGGCCATGGACCGGTTTTCCCGGTAATCCGTATTTGCA (site GAAGGGCCTTG)", "recombinant UMI read abundance (log10)": 0}, {"sequence": "GTTTGAACATGGACCGGTTTTCCCGGTAATCCGTATTTGGC (site GTTCGAACTGC)", "recombinant UMI read abundance (log10)": 0}, {"sequence": "GTACGAGCATGGACCGGTTTTCCCGGTAATCCGTATTTGCA (site GTTCGAGCTTG)", "recombinant UMI read abundance (log10)": 0.659}, {"sequence": "AGTAGGACATGGACCGGTTTTCCCGGTAATCCGTATTTGCA (site AGGAAGACTTG)", "recombinant UMI read abundance (log10)": 1.45}, {"sequence": "TACATCCCATGGACCGGTTTTCCCGGTAATCCGTATTTGAG (site TACATCCCTCT)", "recombinant UMI read abundance (log10)": 0.0123}, {"sequence": "TCTGAAACATGGACCGGTTTTCCCGGTAATCCGTATTTGTG (site TCTGAAACTCA)", "recombinant UMI read abundance (log10)": 0.00806}, {"sequence": "GCCCAATCATGGACCGGTTTTCCCGGTAATCCGTATTTGGT (site GCCCAATCTAC)", "recombinant UMI read abundance (log10)": 1.53}, {"sequence": "GATTATCCATGGACCGGTTTTCCCGGTAATCCGTATTTGCA (site GATTATCCTAG)", "recombinant UMI read abundance (log10)": 0}, {"sequence": "ACACGTCCATGGACCGGTTTTCCCGGTAATCCGTATTTGAC (site ACACATCCTGT)", "recombinant UMI read abundance (log10)": 0}, {"sequence": "CGATCGTCATGGACCGGTTTTCCCGGTAATCCGTATTTGCT (site CGATCTTCTAG)", "recombinant UMI read abundance (log10)": 0}, {"sequence": "AAGCACGCATGGACCGGTTTTCCCGGTAATCCGTATTTGGG (site AAGCGCGCTCC)", "recombinant UMI read abundance (log10)": 0.0213}, {"sequence": "CTGCTTGCATGGACCGGTTTTCCCGGTAATCCGTATTTGAT (site CTGCTTGCTAT)", "recombinant UMI read abundance (log10)": 2.21}, {"sequence": "GGCAATCCATGGACCGGTTTTCCCGGTAATCCGTATTTGAT (site GGCAATCCTAT)", "recombinant UMI read abundance (log10)": 0.192}, {"sequence": "AGCCAAGCATGGACCGGTTTTCCCGGTAATCCGTATTTGTT (site AGCCAAGCTAA)", "recombinant UMI read abundance (log10)": 1.09}, {"sequence": "ATCGAAGCATGGACCGGTTTTCCCGGTAATCCGTATTTGAG (site ATCTAAGCTCT)", "recombinant UMI read abundance (log10)": 0.58}, {"sequence": "TTCAGTCCATGGACCGGTTTTCCCGGTAATCCGTATTTGAT (site TTCAGTCCTAT)", "recombinant UMI read abundance (log10)": 0}, {"sequence": "GAATGGACATGGACCGGTTTTCCCGGTAATCCGTATTTGCA (site GAATGGTCTTG)", "recombinant UMI read abundance (log10)": 1.59}, {"sequence": "TATATGGCATGGACCGGTTTTCCCGGTAATCCGTATTTGTT (site TATATGGCTAA)", "recombinant UMI read abundance (log10)": 0.36}]}]}
